Reference: patent US20120094985A1, “PHARMACEUTICAL COMPOSITIONS COMPRISING CHLOROPHENYL PIPERAZINE DERIVED COMPOUNDS AND USE OF THE COMPOUNDS IN PRODUCING MEDICAMENTS” (KAOHSIUNG MEDICAL UNIVERSITY, priority 2009, published 2012)

Tests used:
Male ddk mice = experiment: Forced swim test (FST), mean immobility time; type: in vivo, mouse; conditions: for immobility period in FST: 4 mg/kg each (FIG. 2)
Experimental: Male ddk mice weighing between 22 and 30 g, bred in the Center Animal House facility of Kaohsiung Medical University (KMU), Taiwan, were used. These experimental animals were housed under standard laboratory conditions and maintained on natural light and dark cycle, and had free access to food and water. Animals were acclimatized to laboratory conditions before the experiment. Each animal was used only once. All the experiments were carried out between 9 a.m. and 3 p.m. The experimental protocols were approved by the Animal Center of KMU, Taiwan.
Forced swim would induce immobility of an animal to simulate the phenomenon of human depression (Renard et al., 2003) and antidepressant was used to reverse this phenomenon (Kulkarni and Mehta, 1985). This test procedure was carried out according to the previous animal model (Reddy et al., 1998).
The doses of the drugs used were selected according to the previous studies (Patil et al., 2005). Different doses were administrated intraperitoneally in a fixed volume of 1 ml/100 g body weight for 30 minutes before the animals were subjected to test.
The possible participation of the NO/cGMP pathway in the antidepressant effect of Pulmodil was investigated. Mice were pretreated with NO/cGMP pathway regulation related drugs ([…], L-arginine, methylene blue or 7-nitroindazole), and then Pulmodil or vehicle was injected to the animal. Forced swim test was performed 30 minutes later.
The possible participation of the 5-HT pathway in the antidepressant effect of Pulmodul was investigated. Mice were pretreated with 5-HT pathway related drugs (DOI, m-CPP or SB200646), and then Pulmodil or vehicle was injected to the animal. Forced swim test was performed 30 minutes later.
Results expressed as mean (sec.)±S.E.M. and the data was analyzed using One-Way or Two-Way Analysis of Variance (ANOVA) where appropriate. If any statistically significant change was found, post-hoc comparisons were performed using a Dunnett's test. Data was deemed significant when P<0.05 was considered statistically significant.

[1] = system: cGMP concentration of mouse brain; experiment: cGMP analysis of mouse brain (ELISA); type: in vivo; conditions: 30 minutes post injection, basal (vehicle) 0.131±0.003
Experimental: Male mice were given Pulmodil with intraperitoneal (i.p.) injection, where mice were divided into three groups, and 0.5, 1 and 2 mg/kg Pulmodil respectively for each group. After 30-minute injection, mice were anesthetized with […] chloral hydrate, and then were fixed on the stereotaxic frame (Narishige, Japan) to obtain mice brain. The isolated brain was homogenized and extracted with 0.1 N HCl. The extract was centrifuged at 4° C., at 14,000 rpm for 30 minutes, and supernatant was collected to determine cGMP concentration, which was determined with commercial enzyme-linked immunosorbent assay (ELISA) kit (Assay Designs) by acetylation procedure.

[2] = system: Male ddk mice pre-treated with Reserpine; experiment: Reserpine-induced forced swimming immobility; type: in vivo, mouse; conditions: for Reserpine-induced immobility: Reserpine 2 mg/kg pre-treatment, then 4 mg/kg, p<0.05 (FIG. 4)
Experimental: Male ddk mice weighing between 22 and 30 g, bred in the Center Animal House facility of Kaohsiung Medical University (KMU), Taiwan, were used. […] Animals were acclimatized to laboratory conditions before the experiment. Each animal was used only once. All the experiments were carried out between 9 a.m. and 3 p.m. […] This test procedure was carried out according to the previous animal model (Reddy et al., 1998). […] Mice were pretreated with NO/cGMP pathway regulation related drugs (Reserpine, L-arginine, methylene blue or 7-nitroindazole), and then Pulmodil or vehicle was injected to the animal. Forced swim test was performed 30 minutes later.

SMILES: COc1cc(CC(C)N)c(OC)cc1I (stereo not drawn) [DOI, 1-(2,5-dimethoxy-4-iodophenyl)-2-aminopropane, reference compound]
- immobility per se (Male ddk mice; DOI 4 mg/kg i.p. alone (FIG. 8)): did not affect the immobility

SMILES: CN(C)c1ccc2nc3ccc(=[N+](C)C)cc-3sc2c1 [Methylene blue, methylene blue, reference compound]
- immobility time per se (Male ddk mice; methylene blue 10 mg/kg i.p. alone (FIG. 6)): did not affect the immobility time

SMILES: Cl.Cn1c(=O)c2c(ncn2CCN2CCN(c3ccccc3Cl)CC2)n(C)c1=O [Pulmodil, 7-[2-[4-(2-chlorophenyl)piperazinyl]ethyl]-1,3-dimethylxanthine.acid]
- immobility period in mouse FST (Male ddk mice; 4, 8 and 16 mg/kg, compared with vehicle, p<0.05 (FIG. 1)): produced a decrease in immobility period
- immobility time after 7-nitroindazole pre-treatment (Male ddk mice; 7-nitroindazole 25 mg/kg i.p. for 30 minutes, then Pulmodil 8 mg/kg i.p., P<0.05 (FIG. 7)): shortened the immobility time
- immobility time after DOI pre-treatment (Male ddk mice; DOI 4 mg/kg i.p. for 30 minutes, then Pulmodil 4 or 8 mg/kg i.p., in comparison with FIG. 1, p<0.05 (FIG. 8)): prolonged the immobility time
- immobility period after L-arginine pre-treatment (Male ddk mice; L-arginine 750 mg/kg i.p. for 30 minutes, then Pulmodil 16 mg/kg i.p., compared to Pulmodil without L-arginine (FIG. 5)): increase in immobility period
- immobility time after SB200646 pre-treatment (Male ddk mice; SB200646 4 mg/kg i.p., then Pulmodil 4 or 8 mg/kg i.p., p<0.05 (FIG. 10)): significantly reduced this immobility time
- immobility time after m-CPP pre-treatment (Male ddk mice; m-CPP 4 mg/kg i.p., then Pulmodil 4 or 8 mg/kg i.p., in comparison with FIG. 1, p<0.05 (FIG. 9)): shortened this immobility time
- immobility time after methylene blue pre-treatment (Male ddk mice; methylene blue 10 mg/kg i.p. for 30 minutes, then Pulmodil 8 mg/kg i.p., p<0.05 (FIG. 6)): significantly decreased the immobility time
- cGMP concentration in the brain ([1]; 0.5 mg/kg i.p.): 0.201 ± 0.003 fmol/µg
- cGMP concentration in the brain ([1]; 1 mg/kg i.p.): 0.293 ± 0.023 fmol/µg
- cGMP concentration in the brain ([1]; 2 mg/kg i.p.): 0.288 ± 0.0234 fmol/µg

SMILES: COC(=O)[C@H]1[C@H]2C[C@@H]3c4[nH]c5cc(OC)ccc5c4CCN3C[C@H]2C[C@@H](OC(=O)c2cc(OC)c(OC)c(OC)c2)[C@@H]1OC [Reserpine]
- immobility period in mouse FST, Reserpine alone ([2]; Reserpine 2 mg/kg, p<0.05 (FIG. 3)): increased immobility period

SMILES: Cl.Cn1ccc2cc(NC(=O)Nc3cccnc3)ccc21 [SB200646, N-(1-methyl-1H-5-indolyl)-N′-(3-pyridinyl)urea hydrochloride, reference compound]
- immobility time per se (Male ddk mice; SB200646 4 mg/kg i.p. alone (FIG. 10)): did not affect the immobility time

SMILES: CCCc1nn(C)c2c(=O)[nH]c(-c3cc(S(=O)(=O)N4CCN(C)CC4)ccc3OCC)nc12 [Sildenafil, reference compound]
- immobility period in FST (Male ddk mice): could not significantly affect immobility time
- Reserpine-induced immobility [2]: significantly inhibited

SMILES: O=c1n(CCCN2CCN(c3cccc(Cl)c3)CC2)nc2ccccn12 [Trazodone, reference compound]
- immobility period in FST (Male ddk mice): significantly decreased the immobility period
- Reserpine-induced immobility [2]: significantly inhibited

SMILES: Clc1cccc(N2CCNCC2)c1 [m-CPP, meta-chlorophenylpiperazine, reference compound]
- immobility time per se (Male ddk mice; m-CPP 4 mg/kg i.p. alone, p<0.05 vs vehicle (FIG. 9)): mildly increased the immobility time

SMILES: Cn1c(=O)c2c(ncn2CCN2CCN(c3ccccc3Cl)CC2)n(C)c1=O [xanthine-based compound, 7-[2-[4-(2-chlorophenyl)piperazinyl]ethyl]-1,3-dimethylxanthine]
- immobility period after Reserpine pre-treatment ([2]; Reserpine 2 mg/kg for 4 hours, then 2, 3, 4 or 8 mg/kg, p<0.05 vs Reserpine (FIG. 3)): dose-dependently reduced the immobility period
- Reserpine-induced immobility [2]: significantly inhibited
